According to ChEMBL document CHEMBL4311992, “Discovery of 3-(((9H-purin-6-yl)amino)methyl)-4,6-dimethylpyridin-2(1H)-one derivatives as novel tubulin polymerization inhibitors for treatment of cancer” (Eur J Med Chem, 2019):
Calls of active or inactive are those of the source. No cut-off for these calls is given here.

What was measured:
[1] = molecular target: Wee1-like protein kinase 2 (Homo sapiens) (UniProt P0C1S8); test: Inhibition of recombinant full-length human WEE1b assessed as residual activity at 10 uM using LSNLYHQGKFLQTFCGSPLYRRR as substrate measured after 120 mins in presence of [gamma33P]ATP by scintillation counting method
Homo sapiens [2] = species on record: Homo sapiens; test: Inhibition of recombinant human Mer H628Q/R794A mutant (557 to 882 residues) assessed as residual activity at 10 uM using GGMEDIYFEFMGGKKK as substrate measured after 40 mins in presence of [gamma33P]ATP by scintillation counting method
[3] = molecular target: Fibroblast growth factor receptor 1 (Homo sapiens) (UniProt P11362); test: Inhibition of recombinant human FGFR1 (456 to 765 residues) assessed as residual activity at 10 uM using KKKSPGEYVNIEFG as substrate measured after 40 mins in presence of [gamma33P]ATP by scintillation counting method
[4] = test system: Dual specificity protein kinase TTK (Homo sapiens), P33981 [S389A]; test: Inhibition of recombinant full-length human TTK S389A mutant assessed as residual activity at 10 uM using MBP as substrate measured after 40 mins in presence of [gamma33P]ATP by scintillation counting method
[5] = molecular target: LIM domain kinase 1 (Homo sapiens) (UniProt P53667); test: Inhibition of recombinant human LIMK1 (285 to 638 residues) assessed as residual activity at 10 uM using cofilin as substrate measured after 40 mins in presence of [gamma33P]ATP by scintillation counting method
[6] = molecular target: Serine/threonine-protein kinase N2 (Homo sapiens) (UniProt Q16513); test: Inhibition of human PRK2 (501 to end residues) using AKRRRLSSLRA as substrate measured after 40 mins in presence of [gamma33P]ATP by scintillation counting method; design: scale not given: the % may be the effect or the level left
SW-620 [7] = test: Induction of apoptosis in human SW620 cells assessed as increase in Bax expression up to 200 nM measured after 48 hrs by Western blot analysis; assay type: functional, cell-based
[8] = molecular target: Interferon-induced, double-stranded RNA-activated protein kinase (Homo sapiens) (UniProt P19525); test: Inhibition of recombinant human PKR (252 to end residues) assessed as residual activity at 10 uM using RSRSRSRSRSRSRSR as substrate measured after 40 mins in presence of [gamma33P]ATP by scintillation counting method
[9] = molecular target: Interleukin-1 receptor-associated kinase 1 (Homo sapiens) (UniProt P51617); test: Inhibition of recombinant human IRAK1 (194 to end residues) assessed as residual activity at 10 uM using myelin basic protein as substrate measured after 40 mins in presence of [gamma33P]ATP by scintillation counting method
[10] = molecular target: Tyrosine-protein kinase ZAP-70 (Homo sapiens) (UniProt P43403); test: Inhibition of recombinant full-length human ZAP70 assessed as residual activity at 10 uM using poly(Glu, Tyr) 4:1 as substrate measured after 40 mins in presence of [gamma33P]ATP by scintillation counting method
[11] = molecular target: MAP/microtubule affinity-regulating kinase 3 (Homo sapiens) (UniProt P27448); test: Inhibition of recombinant full-length human MARK3 assessed as residual activity at 10 uM using KKKVSRSGLYRSPSMPENLNRPR as substrate measured after 40 mins in presence of [gamma33P]ATP by scintillation counting method
[12] = test system: Hepatocyte growth factor receptor (Homo sapiens), P08581 [D1228H]; test: Inhibition of recombinant human MET A1209G/V1290L/D1246H mutant (974 to end residues) assessed as residual activity at 10 uM using KKKGQEEEYVFIE as substrate measured after 40 mins in presence of [gamma33P]ATP by scintillation counting method
[13] = molecular target: Tyrosine-protein kinase ABL1 (Homo sapiens) (UniProt P00519); test: Inhibition of recombinant human ABL (27 to end residues) assessed as residual activity at 10 uM using EAIYAAPFAKKK as substrate measured after 40 mins in presence of [gamma33P]ATP by scintillation counting method
[14] = molecular target: [Pyruvate dehydrogenase (acetyl-transferring)] kinase isozyme 2, mitochondrial (Homo sapiens) (UniProt Q15119); test: Inhibition of human PDHK2 assessed as residual activity at 10 uM by radiometric method
[15] = molecular target: Testis-specific serine/threonine-protein kinase 3 (Homo sapiens) (UniProt Q96PN8); test: Inhibition of recombinant full-length human TSSK3 assessed as residual activity at 10 uM using AMARAASAAALARRR as substrate measured after 40 mins in presence of [gamma33P]ATP by scintillation counting method
[16] = molecular target: Tyrosine-protein kinase Fes/Fps (Homo sapiens) (UniProt P07332); test: Inhibition of recombinant human FES (2 to end residues) assessed as residual activity at 10 uM using poly(Glu, Tyr) 4:1 as substrate measured after 40 mins in presence of [gamma33P]ATP by scintillation counting method
[17] = molecular target: Serine/threonine-protein kinase B-raf (Homo sapiens) (UniProt P15056); test: Inhibition of recombinant human BRAF (416 to end residues) assessed as residual activity at 10 uM using myelin basic protein as substrate measured after 40 mins in presence of [gamma33P]ATP by scintillation counting method
[18] = molecular target: Cyclin-dependent kinase-like 2 (Homo sapiens) (UniProt Q92772); test: Inhibition of human CDKL2 assessed as residual activity at 10 uM by radiometric method
Homo sapiens [19] = species on record: Homo sapiens; test: Inhibition of recombinant human DDR1 V833L mutant (492 to end residues) assessed as residual activity at 10 uM using KKKSPGEYVNIEFG as substrate measured after 40 mins in presence of [gamma33P]ATP by scintillation counting method
[20] = molecular target: Serine/threonine-protein kinase mTOR (Homo sapiens) (UniProt P42345); test: Inhibition of recombinant full-length human mTOR assessed as residual activity at 10 uM measured after 40 mins in presence of [gamma33P]ATP by scintillation counting method
[21] = molecular target: Cyclin-dependent kinase 2/cyclin E1 (Homo sapiens) (UniProt P24864+P24941); test: Inhibition of recombinant full-length human CDK2/cyclinE assessed as residual activity at 10 uM using histone H1 as substrate measured after 40 mins in presence of [gamma33P]ATP by scintillation counting method; assay type: protein-complex assay
[22] = molecular target: Mitogen-activated protein kinase 1 (Mus musculus) (UniProt P63085); test: Inhibition of mouse MAPK2 assessed as residual activity at 10 uM
[23] = test system: Angiopoietin-1 receptor (Homo sapiens), Q02763 [Q939H,Q940H,Y897S]; test: Inhibition of human Tie2 Q939H/Q940H/Y897S mutant (771 to end residues) using EFPIYDFLPAKKK as substrate measured after 40 mins in presence of [gamma33P]ATP by scintillation counting method; design: scale not given: the % may be the effect or the level left
[24] = molecular target: Cyclin-dependent kinase 14/Cyclin-Y (Homo sapiens) (UniProt O94921+Q8ND76); test: Inhibition of human CDK14/cyclinY assessed as residual activity at 10 uM by radiometric method; assay type: protein-complex assay
SW-620 [25] = test: Antiproliferative activity against human SW620 cells assessed as reduction in cell viability after 72 hrs by MTT assay; assay type: functional, cell-based; conditions: SW-620, 72 h

Interleukin-1 receptor-associated kinase 1 (Homo sapiens), sequence (P51617 whole entry, looked up): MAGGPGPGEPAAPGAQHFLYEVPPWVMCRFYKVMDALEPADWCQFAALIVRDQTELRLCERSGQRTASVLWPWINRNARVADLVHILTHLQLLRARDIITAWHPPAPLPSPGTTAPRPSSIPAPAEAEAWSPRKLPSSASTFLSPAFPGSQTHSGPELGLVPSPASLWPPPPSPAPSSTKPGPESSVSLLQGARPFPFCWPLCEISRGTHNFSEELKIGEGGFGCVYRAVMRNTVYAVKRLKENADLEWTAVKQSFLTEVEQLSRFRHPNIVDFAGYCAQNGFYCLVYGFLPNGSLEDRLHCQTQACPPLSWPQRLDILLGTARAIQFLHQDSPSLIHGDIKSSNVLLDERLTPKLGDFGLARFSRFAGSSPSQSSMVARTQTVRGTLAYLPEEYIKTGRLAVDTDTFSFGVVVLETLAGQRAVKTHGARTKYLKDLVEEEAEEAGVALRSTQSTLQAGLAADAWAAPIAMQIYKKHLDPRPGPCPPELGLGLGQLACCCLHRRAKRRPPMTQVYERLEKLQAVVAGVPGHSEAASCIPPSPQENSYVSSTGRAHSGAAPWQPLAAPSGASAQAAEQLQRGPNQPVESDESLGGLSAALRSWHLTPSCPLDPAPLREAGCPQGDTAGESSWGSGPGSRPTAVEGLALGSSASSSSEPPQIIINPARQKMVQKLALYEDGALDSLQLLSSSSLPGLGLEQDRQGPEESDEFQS
Cyclin-dependent kinase-like 2 (Homo sapiens), sequence (Q92772 whole entry): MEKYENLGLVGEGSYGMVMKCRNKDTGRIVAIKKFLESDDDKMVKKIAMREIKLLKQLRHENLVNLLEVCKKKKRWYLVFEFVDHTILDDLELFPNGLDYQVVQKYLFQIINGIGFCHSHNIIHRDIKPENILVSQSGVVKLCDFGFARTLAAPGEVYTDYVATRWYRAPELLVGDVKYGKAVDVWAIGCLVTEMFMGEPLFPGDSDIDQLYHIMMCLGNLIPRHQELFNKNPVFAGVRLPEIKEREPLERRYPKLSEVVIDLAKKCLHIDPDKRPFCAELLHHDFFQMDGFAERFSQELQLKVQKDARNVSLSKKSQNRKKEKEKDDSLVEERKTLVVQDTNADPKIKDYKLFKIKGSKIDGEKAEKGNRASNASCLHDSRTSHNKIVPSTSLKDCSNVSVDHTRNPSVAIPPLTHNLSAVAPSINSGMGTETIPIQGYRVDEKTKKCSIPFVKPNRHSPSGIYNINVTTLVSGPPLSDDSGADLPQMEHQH
Testis-specific serine/threonine-protein kinase 3 (Homo sapiens), sequence (Q96PN8 whole entry): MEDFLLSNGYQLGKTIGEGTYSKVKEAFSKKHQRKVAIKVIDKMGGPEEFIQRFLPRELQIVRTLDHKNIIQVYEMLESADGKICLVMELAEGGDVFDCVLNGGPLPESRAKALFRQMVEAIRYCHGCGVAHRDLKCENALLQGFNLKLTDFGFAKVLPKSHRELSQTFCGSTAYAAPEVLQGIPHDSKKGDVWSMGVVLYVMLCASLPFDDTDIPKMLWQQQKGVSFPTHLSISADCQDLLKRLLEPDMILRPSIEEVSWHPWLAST
Tyrosine-protein kinase ZAP-70 (Homo sapiens), sequence (P43403 whole entry): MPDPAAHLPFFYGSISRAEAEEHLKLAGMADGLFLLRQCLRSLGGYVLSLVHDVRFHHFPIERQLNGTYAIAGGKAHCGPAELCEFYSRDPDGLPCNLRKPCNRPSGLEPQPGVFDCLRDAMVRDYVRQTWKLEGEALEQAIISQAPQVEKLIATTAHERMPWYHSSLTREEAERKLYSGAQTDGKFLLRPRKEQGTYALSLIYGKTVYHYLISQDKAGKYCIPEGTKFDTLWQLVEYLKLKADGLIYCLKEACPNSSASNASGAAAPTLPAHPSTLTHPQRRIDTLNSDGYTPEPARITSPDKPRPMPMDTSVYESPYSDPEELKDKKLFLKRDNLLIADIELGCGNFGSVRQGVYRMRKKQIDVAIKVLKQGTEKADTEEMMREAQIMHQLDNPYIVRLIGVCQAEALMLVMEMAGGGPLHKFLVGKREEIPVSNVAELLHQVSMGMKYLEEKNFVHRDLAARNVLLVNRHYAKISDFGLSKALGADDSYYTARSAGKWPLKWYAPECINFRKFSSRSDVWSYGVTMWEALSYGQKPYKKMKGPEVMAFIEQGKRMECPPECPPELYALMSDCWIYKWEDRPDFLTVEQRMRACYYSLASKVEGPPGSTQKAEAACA
Tyrosine-protein kinase Fes/Fps (Homo sapiens), sequence (P07332 whole entry): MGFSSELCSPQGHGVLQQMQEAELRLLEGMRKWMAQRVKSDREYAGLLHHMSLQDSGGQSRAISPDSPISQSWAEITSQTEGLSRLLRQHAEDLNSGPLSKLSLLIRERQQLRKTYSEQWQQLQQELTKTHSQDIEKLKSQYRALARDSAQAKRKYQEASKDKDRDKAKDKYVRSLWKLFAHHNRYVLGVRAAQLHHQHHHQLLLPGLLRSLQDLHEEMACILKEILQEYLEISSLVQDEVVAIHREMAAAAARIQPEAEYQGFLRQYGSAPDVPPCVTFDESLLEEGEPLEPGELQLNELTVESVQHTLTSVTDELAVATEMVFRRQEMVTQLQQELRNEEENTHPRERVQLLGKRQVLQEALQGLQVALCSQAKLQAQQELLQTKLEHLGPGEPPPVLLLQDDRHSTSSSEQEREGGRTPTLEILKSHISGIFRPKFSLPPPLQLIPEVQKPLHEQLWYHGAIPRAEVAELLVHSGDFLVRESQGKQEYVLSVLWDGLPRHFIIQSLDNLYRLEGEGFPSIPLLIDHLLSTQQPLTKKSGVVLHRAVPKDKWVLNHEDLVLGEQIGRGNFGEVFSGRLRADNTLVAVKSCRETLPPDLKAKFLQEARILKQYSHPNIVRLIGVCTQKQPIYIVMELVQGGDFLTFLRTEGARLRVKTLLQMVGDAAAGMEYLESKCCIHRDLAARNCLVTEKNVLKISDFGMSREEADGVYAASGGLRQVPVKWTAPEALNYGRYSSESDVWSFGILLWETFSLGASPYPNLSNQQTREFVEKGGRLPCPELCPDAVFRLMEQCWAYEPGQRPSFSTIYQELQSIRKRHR
Serine/threonine-protein kinase B-raf (Homo sapiens), sequence (P15056 whole entry): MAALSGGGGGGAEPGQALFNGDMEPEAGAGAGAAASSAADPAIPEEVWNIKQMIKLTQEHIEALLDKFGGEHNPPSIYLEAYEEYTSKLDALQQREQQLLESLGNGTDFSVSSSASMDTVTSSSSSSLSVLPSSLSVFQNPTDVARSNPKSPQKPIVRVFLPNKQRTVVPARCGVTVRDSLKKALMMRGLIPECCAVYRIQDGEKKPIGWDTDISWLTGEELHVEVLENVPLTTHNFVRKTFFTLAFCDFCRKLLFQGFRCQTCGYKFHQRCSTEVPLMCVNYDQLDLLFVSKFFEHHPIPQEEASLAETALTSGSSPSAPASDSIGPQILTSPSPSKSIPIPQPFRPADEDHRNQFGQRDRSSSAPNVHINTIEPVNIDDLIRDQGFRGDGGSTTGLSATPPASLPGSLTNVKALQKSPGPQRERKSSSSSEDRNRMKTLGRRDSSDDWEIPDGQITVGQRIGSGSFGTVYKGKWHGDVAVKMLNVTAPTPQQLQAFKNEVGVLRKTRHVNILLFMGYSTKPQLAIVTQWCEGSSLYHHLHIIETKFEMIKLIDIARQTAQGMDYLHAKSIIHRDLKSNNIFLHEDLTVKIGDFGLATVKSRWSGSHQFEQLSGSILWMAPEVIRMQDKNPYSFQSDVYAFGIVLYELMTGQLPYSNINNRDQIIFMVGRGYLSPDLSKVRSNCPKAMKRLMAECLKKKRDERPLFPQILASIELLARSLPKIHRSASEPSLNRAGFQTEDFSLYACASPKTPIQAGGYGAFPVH
Mitogen-activated protein kinase 1 (Mus musculus), sequence (P63085 whole entry): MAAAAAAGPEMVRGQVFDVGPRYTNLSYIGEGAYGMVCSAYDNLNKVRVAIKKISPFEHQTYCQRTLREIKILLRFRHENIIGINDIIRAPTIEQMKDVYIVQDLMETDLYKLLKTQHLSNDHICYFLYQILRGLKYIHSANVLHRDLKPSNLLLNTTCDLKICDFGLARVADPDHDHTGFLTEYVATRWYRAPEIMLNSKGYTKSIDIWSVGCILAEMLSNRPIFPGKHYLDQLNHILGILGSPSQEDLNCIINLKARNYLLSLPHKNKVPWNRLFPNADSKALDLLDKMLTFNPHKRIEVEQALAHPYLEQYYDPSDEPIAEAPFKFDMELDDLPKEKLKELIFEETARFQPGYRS
Wee1-like protein kinase 2 (Homo sapiens), sequence (P0C1S8 whole entry, looked up, the tested form may be a part): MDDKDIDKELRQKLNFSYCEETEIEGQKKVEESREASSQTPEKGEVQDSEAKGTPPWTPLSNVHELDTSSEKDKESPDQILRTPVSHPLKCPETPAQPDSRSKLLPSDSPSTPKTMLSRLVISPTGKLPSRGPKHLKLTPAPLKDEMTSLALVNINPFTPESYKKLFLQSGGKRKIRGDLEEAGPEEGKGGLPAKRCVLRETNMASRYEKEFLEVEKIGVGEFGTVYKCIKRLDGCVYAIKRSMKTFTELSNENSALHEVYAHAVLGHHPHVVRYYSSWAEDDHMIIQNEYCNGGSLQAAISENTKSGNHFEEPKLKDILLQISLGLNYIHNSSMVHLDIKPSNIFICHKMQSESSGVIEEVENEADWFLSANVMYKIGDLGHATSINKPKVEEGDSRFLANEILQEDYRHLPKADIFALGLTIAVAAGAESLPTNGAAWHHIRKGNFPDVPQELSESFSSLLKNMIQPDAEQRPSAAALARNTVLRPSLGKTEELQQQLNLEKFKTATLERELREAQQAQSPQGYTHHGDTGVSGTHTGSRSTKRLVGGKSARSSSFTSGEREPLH

## Cc1cc(C)c(CNc2nc(Cl)nc3c2ncn3C2CCCC2)c(=O)[nH]1
[1]
  Activity: 95%
Homo sapiens [2]
  Activity: 109%
[3]
  Activity: 108%
[4]
  Activity: 99.5%
[5]
  Activity: 101%
[6]
  Activity: 116%
SW-620 [7]
  Activity: Active
[8]
  Activity: 109%
[9]
  Activity: 102%
[10]
  Activity: 95.5%
[11]
  Activity: 90%
[12]
  Activity: 108%
[13]
  Activity: 108%
[14]
  Activity: 128%
[15]
  Activity: 124%
[16]
  Activity: 100%
[17]
  Activity: 122%
[18]
  Activity: 131%
Homo sapiens [19]
  Activity: 114%
[20]
  Activity: 78.5%
[21]
  Activity: 115%
[22]
  Activity: 97.5%
[23]
  Activity: 114%
[24]
  Activity: 96.5%
SW-620 [25]
  IC50: 0.06 µM
